Values joined by “and” are separate entries in the source; they are usually repeats but may differ in a detail not shown here. Equal values may be shown once. Marks after values point to notes of the source that are not given here.
Tests used:
Format in all cases: in vivo, rat
[1] = system: rats subjected to li-pilo SE; test: Latency to and frequency of spontaneous seizures by video recording, lithium-pilocarpine model (Example 2)
Description: All rats received lithium chloride (3 meq/kg, i.p., Sigma, St Louis, Mo., U.S.A.) and about 20 h later, all animals received also methylscopolamine bromide (1 mg/kg, s.c., Sigma) that was administered to limit the peripheral effects of the convulsant. SE was induced by injecting pilocarpine hydrochloride (25 mg/kg, s.c., Sigma) 30 min after methylscopolamine. The effects of increasing doses of TC (RWJ) were studied in 5 groups of rats. […] The control group received vehicle instead of pilocarpine and TC. The rats surviving SE were then injected about 10 h after the first TC injection with a second i.p. injection of 1.25 mg/kg DZP for the DZP group or of the same dose of TC as in the morning and were maintained under a twice daily TC treatment (s.c.) for 6 additional days while DZP rats received a vehicle injection.
The effects of DZP and the 4 doses of TC on epileptogenesis were investigated by daily video recording of the animals for 10 h per day. Video recording was performed for 4 weeks during which the occurrence of the first seizure was noted as well as the total number of seizures over the whole period. Animals were then taken off the video recording system and kept for 4 additional weeks in our animal facilities before they were sacrificed after a total period of 8 weeks of epilepsy.
For neuronal damage and epileptogenesis, statistical analysis between groups was performed by means of a one-way analysis of variance followed by a post-hoc Dunnett or Fisher test using the Statistica software.

[2] = system: rats subjected to Li-pilo induced SE; test: Timm staining, mossy fiber sprouting in hippocampus (Example 1)
Description: At 2 months after the onset of spontaneous recurrent seizures, mossy fiber sprouting was examined on rats in the chronic period exposed to the test compound or DZP and in 3 saline-saline rats. Animals were deeply anaesthetized and perfused transcardially with saline followed by 100 ml of 1.15% (w/v) Na2S in 0.1 M phosphate buffer, and 100 ml of 4% (v/v) formaldehyde in 0.1 M phosphate buffer. Brains were removed from skull, post-fixed in 4% formaldehyde during 3-5 h and 40 μm sections were cut on a sliding vibratome and mounted on gelatin-coated slides.
The following day, sections were developed in the dark in a 26° C. solution of 50% (w/v) arabic gum (160 ml), sodium citrate buffer (30 ml), 5.7% (w/v) hydroquinone (80 ml) and 10% (w/v) silver nitrate (2.5 ml) during 40-45 min. The sections were then rinsed with tap water at 40° C. during at least 45 min, rinsed rapidly with distilled water and allowed to dry. They were dehydrated in ethanol and coverslipped.
Mossy fiber sprouting was evaluated according to criteria previously described in dorsal hippocampus (Cavazos et al., 1991, J Neurosci 11:2795-2803), which are follows: O— no granules between the tips and crest of the DG; 1—sparse granules in the supragranular region in a patchy distribution between the tips and crest of DG; 2—more numerous granules in a continuous distribution between the tips and crest of DG; 3—prominent granules in a continuous pattern between tips and crest, with occasional patches of confluent granules between tips and crest; 4—prominent granules that form a confluent dense laminar band between tips and crest and 5—confluent dense laminar band of granules that extends into the inner molecular layer.

[3] = system: rats subjected to Li-pilo induced SE; test: Latency to and frequency of spontaneous recurrent seizures (SRS), lithium-pilocarpine model (Example 1)
Description: All rats received lithium chloride (3 meq/kg, i.p., Sigma, St Louis, Mo., U.S.A.); about 20 h later, animals were placed into plexiglas boxes, in order to record baseline cortical EEG. Methylscopolamine bromide (1 mg/kg, s.c., Sigma) was administered to limit the peripheral effects of the convulsant. SE was induced by injecting pilocarpine hydrochloride (25 mg/kg, s.c., Sigma) 30 min after methyl-scopolamine. The bilateral EEG cortical activity was recorded during the whole duration of SE and behavioral changes were noted.
The effects of increasing doses of the test compound were studied on 3 groups of rats. The animals of the first group received 10 mg/kg of the test compound, i.p., 1 h after the onset of SE (pilo-TC10) while the animals of groups 2 and 3 received 30 and 60 mg/kg of the test compound (pilo-TC30 and pilo-TC60), respectively.
Another group was injected with 2 mg/kg diazepam (DZP, i.m.) at 1 h after the onset of SE. This is a standard treatment to improve animals survival after SE (pilo-DZP). The control group received saline instead of pilocarpine and the test compound (saline-saline). The pilo-test compound rats surviving SE were then injected about 10 h after the first test compound injection with a second i.p. injection of the same dose of the test compound and were maintained under a twice daily treatment with the test compound for 6 additional days. Pilo-DZP received a second injection of 1 mg/kg DZP on the day of SE at about 10 h after the first one. Thereafter, Pilo-DZP and saline-saline rats received twice daily an equivalent volume of saline.
The effects of the test compound on the EEG and on the latency to occurrence of SRS were investigated by daily video recording of the animals for 10 h per day and the recording of the electrographic activity twice a week for 8 h.
To calculate the frequency of SRS in pilocarpine-exposed rats, the seizure severity and distinguished stage III (clonic seizures of facial muscles and anterior limbs) and stage IV-V seizures (rearing and falling) was considered. The frequency of stage III SRS per week in pilo-DZP and pilo-test compound rats was variable amongst the groups. It was low, constant in the pilo-DZP and pilo-TC60 (with early SRS onset) groups during the first 3 weeks and had disappeared during the 4th week in the pilo-DZP group. […] The frequency of more severe stage IV-V SRS was highest during the first week in most groups, except pilo-TC30 and TC60 with late seizure onset where the SRS frequency was constant over the whole 4 weeks in TC30 group and over the first two weeks in the pilo-TC60 group with late SRS onset in which no stage IV-V seizures where no seizures recorded after the second week.

SMILES: CN1C(=O)CN=C(c2ccccc2)c2cc(Cl)ccc21 [DZP, diazepam, reference compound]
- frequency of spontaneous seizures over four weeks of recording ([1]; DZP and TC30 groups): tendency to be higher
- Latency to the first spontaneous seizure ([1]; DZP, 14 animals): 15.5 ± 2.3 days and 15.5 ± 2.34 days
- mean Timm score, upper blade of the dentate gyrus ([2]; pilo-DZP, n=9, score scale 0-5): 2.8±0.8
- frequency of stage IV-V SRS ([3]; pilo-DZP, first week): 11.3 SRS per week
- latency to SRS ([3]; pilo-DZP, n=9): 18.2 ± 6.9 days

SMILES: NC(=O)OC[C@@H](O)c1ccccc1Cl [Formula 7]
- frequency of spontaneous seizures over four weeks of recording ([1]; DZP and TC30 groups): tendency to be higher
- rats with short latencies to seizures (shorter than 40 days after SE) ([1]; TC 90 mg/kg, 4/11): 36%
- rats with short latencies to seizures (shorter than 40 days after SE) ([1]; TC 120 mg/kg, 1/9): 11%
- latency to epilepsy of the long latency subgroup relative to the short latency ([1]; TC 60, 90 and 120 mg/kg, subgroup of 2-4 animals per group): 4-6 times
- frequency of spontaneous seizures over four weeks of recording ([1]; TC60, 90 and 120 groups, significant for total or mean number of seizures over the four weeks): lower
- rats with short latencies to seizures (shorter than 40 days after SE) ([1]; TC at 30 mg/kg (so in the source), 7/10): 70%
- percentage of non-epileptic rats (no seizure over 150 days post-SE) ([1]; at both of the two highest doses of TC (90 and 120 mg/kg)): 45%
- Latency to the first spontaneous seizure ([1]; pilo-TC30 (30 mg/kg), 8 animals, listed as TC): 11.6 ± 2.5 days
- Latency to the first spontaneous seizure ([1]; pilo-TC60 (60 mg/kg), Long latency subgroup (n = 3)): 76.7 ± 15.6 °° days
- Latency to the first spontaneous seizure ([1]; pilo-TC60 (60 mg/kg), Short latency subgroup (n = 7)): 17.4 ± 5.4 days
- Latency to the first spontaneous seizure ([1]; pilo-TC90 (90 mg/kg), Long latency subgroup (n = 2)): 52.0 ± 1.0 ° days
- Latency to the first spontaneous seizure ([1]; pilo-TC90 (90 mg/kg), Short latency subgroup (n = 4)): 14.8 ± 5.7 days
- Latency to the first spontaneous seizure ([1]; pilo-TC120 (120 mg/kg), Long latency subgroup (n = 4)): 84.5 ± 16.7 °° days
- Latency to the first spontaneous seizure ([1]; pilo-TC120 (120 mg/kg), Non epileptic subgroup (n = 4), no seizure over 150 days post-SE): 150** °° days
- Latency to the first spontaneous seizure ([1]; pilo-TC120 (120 mg/kg), Short latency subgroup (n = 1)): 13.0 days
- mean Timm score, upper blade of the dentate gyrus ([2]; pilo-TC10, n=7, p=0.032 vs pilo-DZP): 1.5±0.6
- mean Timm score, upper blade of the dentate gyrus ([2]; pilo-TC30, n=10): 2.6±1.0
- mean Timm score, upper blade of the dentate gyrus ([2]; pilo-TC60 subgroup with early SRS occurrence, n=6): 1.8±0.6
- mean Timm score, upper blade of the dentate gyrus ([2]; pilo-TC60 subgroup with late occurrence or absence of SRS, n=5, p=0.016 vs pilo-DZP): 1.2±0.6
- mean Timm score, upper blade of the dentate gyrus ([2]; whole group of pilo-TC60 rats, n=11): 1.5±0.7
- mean delay to becoming epileptic relative to the other groups of animals ([3]; TC 60 mg/kg, subgroup of animals with delayed SRS): about 9 fold
- rats in which occurrence of spontaneous seizures was delayed ([3]; TC 60 mg/kg, 4 out of 11): 36%
- frequency of stage IV-V SRS ([3]; TC10, TC30 and TC60 (with early SRS onset) groups, first week, significantly reduced vs pilo-DZP): 2.3-6.1 SRS per week
- absence of epilepsy ([3]; TC60 (60 mg/kg)): one rat did not become epileptic in a delay of 9 months post-SE
- latency to SRS ([3]; TC60 (60 mg/kg), subgroup with latency similar to other groups, n=7): 17.6 ± 8.7 days
- latency to SRS ([3]; TC60 (60 mg/kg), subgroup with much longer delay, mean, n=4): 149.8 ± 36.0 days
- latency to SRS ([3]; pilo-TC10 (10 mg/kg, 7-day treatment), n=7): 15.4 ± 5.1 days
- frequency of stage III SRS ([3]; pilo-TC10, weeks 3 and 4): significantly increased over pilo-DZP values
- latency to SRS ([3]; pilo-TC30 (30 mg/kg, 7-day treatment), n=10): 18.9 ± 9.0 days
- frequency of stage IV-V SRS ([3]; pilo-TC60 group with early SRS onset, weeks 2-4, significantly reduced vs pilo-DZP): 0.6-0.9 seizure per week
